# Experiments:
# RnfG [1] = target: T1, RnfG (Methanosarcina acetivorans, UniProt Q8TSY2); assay: UV-visible absorbance of purified protein; UV fluorescence in SDS-PAGE gel; boiling and TCA treatment; assay type: binding; conditions: covalent (flavin assigned as FMN, attached at Thr166); 25 µM protein, 25 mM Tris-HCl pH 8
# T1 construct: full-length membrane subunit with C-terminal His6 tag (vector leader removed), made in E. coli LMG194, purified from membranes in dodecyl maltoside; isolated subunit of the Rnf complex
# RnfG [2] = target: T2, RnfG (Methanosarcina acetivorans, UniProt Q8TSY2, T166G); assay: protein colour and UV fluorescence of the purified variant; assay type: binding; conditions: removal of the covalent FMN attachment residue
# T2 construct: full-length membrane subunit with C-terminal His6 tag (vector leader removed), made in E. coli LMG194, purified from membranes in dodecyl maltoside; isolated subunit of the Rnf complex
# T2 sequence (Q8TSY2 whole entry T166G): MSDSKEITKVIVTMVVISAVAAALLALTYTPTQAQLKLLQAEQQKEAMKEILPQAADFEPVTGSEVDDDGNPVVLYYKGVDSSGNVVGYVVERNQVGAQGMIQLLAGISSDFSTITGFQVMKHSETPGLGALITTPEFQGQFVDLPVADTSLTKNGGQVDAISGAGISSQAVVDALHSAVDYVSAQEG
# T1 sequence (Q8TSY2 whole entry): as the sequence (Q8TSY2 whole entry T166G) above, with G166T counted along it
smiles,measurement,setting,value
Cc1cc2nc3c(=O)[nH]c(=O)nc-3n(C[C@H](O)[C@H](O)[C@H](O)COP(=O)(O)O)c2cc1C [FMN],molar ratio of flavin,RnfG [1],0.84 mol/mol
same,colour and fluorescence,RnfG [2],The purified variant was colorless and failed to fluoresce under UV illumination
